Laboratory results as given in patent US11485731B2, “Compounds and methods useful in the treatment of a PRMT5-mediated disorder” (ARGONAUT THERAPEUTICS LIMITED, priority 2017, dated 2022).

target: human PRMT5/MEP50 (Homo sapiens (Human), UniProt O14744); assay: PRMT5 chemiluminescent assay; type: biochemical; conditions: human PRMT5/MEP50 expressed in HEK293 cells; biotinylated histone peptides; Histone H4 monomethyl R3 antibody; chemiluminescent readout
Procedure: A PRMT5 chemiluminescent assay was used to measure the IC50 activity of PRMT5 of the compounds of Examples 1A to 7 above. Biotinylated histone peptides were synthesized and attached to 384-well plates. Compound serial dilutions were performed and added to the assay plate. Histone H4 monomethyl R3 antibody was obtained from Abcam. A master mix for each well was prepared and human PRMT5/MEP50 (expressed in HEK293 cells) diluted in assay buffer to a concentration of 5 ng/μL. The reaction was incubated and slowly rotated for 60 minutes at the point of PRMT5/MEP50 addition. The supernatant from the wells was removed and blocking buffer was added to each well and rotated for 10 minutes. The primary antibody was diluted and added to every well for 60 minutes, before it was removed and the wells washed. The horse raddish peroxidase (HRP)-coupled secondary antibody was diluted and added to each well with an incubation time of 30 minutes. The HRP chemiluminescent substrate was added to every well. The plate was read on a Flourstar Omega BMG Labtech instrument (Ortenberg, Germany) and the analysis of IC50 was performed using the Flourstar Omega BMG Labtech software.

human PRMT5/MEP50, sequence (O14744 whole entry): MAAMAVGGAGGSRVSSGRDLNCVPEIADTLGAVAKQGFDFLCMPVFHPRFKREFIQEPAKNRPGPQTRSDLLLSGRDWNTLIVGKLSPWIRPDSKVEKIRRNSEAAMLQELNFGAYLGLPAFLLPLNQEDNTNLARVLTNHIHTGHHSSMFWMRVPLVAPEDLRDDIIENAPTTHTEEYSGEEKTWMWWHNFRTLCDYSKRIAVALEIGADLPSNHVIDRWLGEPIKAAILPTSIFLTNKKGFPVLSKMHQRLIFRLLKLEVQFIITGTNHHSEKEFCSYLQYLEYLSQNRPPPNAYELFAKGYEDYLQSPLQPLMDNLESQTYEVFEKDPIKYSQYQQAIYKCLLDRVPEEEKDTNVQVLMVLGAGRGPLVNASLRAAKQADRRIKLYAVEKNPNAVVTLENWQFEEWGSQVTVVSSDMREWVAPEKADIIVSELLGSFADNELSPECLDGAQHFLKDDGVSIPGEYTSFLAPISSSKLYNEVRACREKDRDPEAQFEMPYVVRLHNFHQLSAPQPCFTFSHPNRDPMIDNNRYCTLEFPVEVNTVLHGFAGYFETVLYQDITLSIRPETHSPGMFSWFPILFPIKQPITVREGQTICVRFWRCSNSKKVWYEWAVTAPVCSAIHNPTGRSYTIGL
human PRMT5/MEP50, sequence (Q9BQA1 whole entry partner): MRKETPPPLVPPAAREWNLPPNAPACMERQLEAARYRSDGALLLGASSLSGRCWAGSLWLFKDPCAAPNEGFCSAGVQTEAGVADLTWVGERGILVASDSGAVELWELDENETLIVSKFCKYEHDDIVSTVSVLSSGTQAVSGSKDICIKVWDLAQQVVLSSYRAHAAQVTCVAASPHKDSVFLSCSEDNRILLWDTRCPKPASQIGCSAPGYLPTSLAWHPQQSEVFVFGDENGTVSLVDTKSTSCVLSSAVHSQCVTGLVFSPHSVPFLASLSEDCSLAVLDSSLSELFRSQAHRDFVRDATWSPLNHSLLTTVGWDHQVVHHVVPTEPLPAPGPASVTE

Point of comparison: `COC(=O)N1CCCN(C(=O)NC[C@@H](O)CN2CCc3ccccc3C2)CC1` [Example 1BC, Methyl (R)-4-((3-(3,4-dihydroisoquinolin-2(1H)-yl)-2-hydroxypropyl)carbamoyl)-1,4-diazepane-1-carboxylate], IC50 33100 nM. Against it:
- O=C(NC[C@H](O)CN1CCc2ccccc2C1)N1CCCN(C(=O)c2cccs2)CC1 [Example 1AW, (S)-N-(3-(3,4-dihydroisoquinolin-2(1H)-yl)-2-hydroxypropyl)-4-(thiophene-2-carbonyl)-1,4-diazepane-1-carboxamide] — 4.7-fold lower, 7020 nM
- CN(C)C(=O)C1CCN(C(=O)NC[C@H](O)CN2CCc3ccccc3C2)CC1 [Example 1AX, (S)-N^1-(3-(3,4-dihydroisoquinolin-2(1H)-yl)-2-hydroxypropyl)-N^4,N^4-dimethylpiperidine-1,4-dicarboxamide] — 56-fold lower, 588 nM
- O=C(NC[C@H](O)CN1CCc2ccccc2C1)N1CCC(C(=O)N2CCOCC2)CC1 [Example 1AY, (S)-N-(3-(3,4-dihydroisoquinolin-2(1H)-yl)-2-hydroxypropyl)-4-(morpholine-4-carbonyl)piperidine-1-carboxamide] — 110-fold lower, 311 nM
- O=C(NC[C@H](O)CN1CCc2ccccc2C1)N1CCC(C(=O)N2C3CCC2COC3)CC1 [Example 1AZ, 4-(3-oxa-8-azabicyclo[3.2.1]octane-8-carbonyl)-N-((S)-3-(3,4-dihydroisoquinolin-2(1H)-yl)-2-hydroxypropyl)piperidine-1-carboxamide] — 210-fold lower, 159 nM
- O=C(NCC(O)CN1CCc2ccsc2C1)N1CCC(c2ccccc2)C1 (stereo not shown) [Example 1Af, N-(3-(4,7-dihydrothieno[2,3-c]pyridin-6(5H)-yl)-2-hydroxypropyl)-3-phenylpyrrolidine-1-carboxamide] — 44-fold lower, 749 nM
- CC(=O)N1CCN(C(=O)NCC(O)CN2CCc3ccccc3C2)CC1 (stereo not shown) [Example 1B, 4-acetyl-N-[2-hydroxy-3-(1,2,3,4-tetrahydroisoquinolin-2-yl)propyl]piperazine-1-carboxamide] — 3.3-fold lower, 9910 nM
- O=C(NC[C@H](O)CN1CCc2ccccc2C1)N1CCC(c2ccccn2)C1 (stereo partly drawn) [Example 1BA, N-((S)-3-(3,4-dihydroisoquinolin-2(1H)-yl)-2-hydroxypropyl)-3-(pyridin-2-yl)pyrrolidine-1-carboxamide] — 340-fold lower, 97 nM
- CC(=O)N1CCCN(C(=O)NC[C@@H](O)CN2CCc3ccccc3C2)CC1 [Example 1BB, (R)-4-acetyl-N-(3-(3,4-dihydroisoquinolin-2(1H)-yl)-2-hydroxypropyl)-1,4-diazepane-1-carboxamide] — 1.6-fold higher, 51800 nM
- CS(=O)(=O)N1CCCN(C(=O)NC[C@@H](O)CN2CCc3ccccc3C2)CC1 [Example 1BD, (R)-N-(3-(3,4-dihydroisoquinolin-2(1H)-yl)-2-hydroxypropyl)-4-(methylsulfonyl)-1,4-diazepane-1-carboxamide] — 1.8-fold higher, 58200 nM
- O=C(NC[C@@H](O)CN1CCc2ccccc2C1)N1CCC(C(=O)N2C3CCC2COC3)CC1 [Example 1BE, 4-(3-oxa-8-azabicyclo[3.2.1]octane-8-carbonyl)-N-((R)-3-(3,4-dihydroisoquinolin-2(1H)-yl)-2-hydroxypropyl)piperidine-1-carboxamide] — 11-fold lower, 3080 nM
- O=C(NC[C@H](O)CN1CCc2ccccc2C1)N1CCC(F)(F)CC1 [Example 1BF, (S)-N-(3-(3,4-dihydroisoquinolin-2(1H)-yl)-2-hydroxypropyl)-4,4-difluoropiperidine-1-carboxamide] — 5.9-fold lower, 5600 nM
- CC1(O)CCN(C(=O)NC[C@H](O)CN2CCc3ccccc3C2)CC1 [Example 1BG, (S)-N-(3-(3,4-dihydroisoquinolin-2(1H)-yl)-2-hydroxypropyl)-4-hydroxy-4-methylpiperidine-1-carboxamide] — 8.4-fold lower, 3940 nM
- O=C(NC[C@H](O)CN1CCc2ccccc2C1)N1CCCC(O)(c2ccccc2)C1 (stereo partly drawn) [Example 1BH, N-((S)-3-(3,4-dihydroisoquinolin-2(1H)-yl)-2-hydroxypropyl)-3-hydroxy-3-phenylpiperidine-1-carboxamide] — 200-fold lower, 167 nM
- O=C(NC[C@H](O)CN1CCc2ccccc2C1)N1CCC(O)(c2ccccc2)C1 (stereo partly drawn) [Example 1BI, N-((S)-3-(3,4-dihydroisoquinolin-2(1H)-yl)-2-hydroxypropyl)-3-hydroxy-3-phenylpyrrolidine-1-carboxamide] — 83-fold lower, 399 nM
- O=C(NC[C@H](O)CN1CCc2ccccc2C1)N1CCSC(c2ccccc2)C1 (stereo partly drawn) [Example 1BJ, N-((S)-3-(3,4-dihydroisoquinolin-2(1H)-yl)-2-hydroxypropyl)-2-phenylthiomorpholine-4-carboxamide] — 310-fold lower, 108 nM
- O=C(NC[C@H](O)CN1CCc2ccccc2C1)N1CCCC(n2cccn2)C1 (stereo partly drawn) [Example 1BK, N-((S)-3-(3,4-dihydroisoquinolin-2(1H)-yl)-2-hydroxypropyl)-3-(1H-pyrazol-1-yl)piperidine-1-carboxamide] — 84-fold lower, 396 nM
- O=C(NC[C@H](O)CN1CCc2ccccc2C1)N1CCCC(n2ccnc2)C1 (stereo partly drawn) [Example 1BL, N-((S)-3-(3,4-dihydroisoquinolin-2(1H)-yl)-2-hydroxypropyl)-3-(1H-imidazol-1-yl)piperidine-1-carboxamide] — 7.5-fold lower, 4440 nM
- O=C(NC[C@H](O)CN1CCc2ccccc2C1)N1CCCN(S(=O)(=O)c2ccccc2)CC1 [Example 1BM, (S)-N-(3-(3,4-dihydroisoquinolin-2(1H)-yl)-2-hydroxypropyl)-4-(phenylsulfonyl)-1,4-diazepane-1-carboxamide] — 26-fold lower, 1280 nM
- O=C(NC[C@H](O)CN1CCc2ccccc2C1)N1CCCSC(c2ccccc2)C1 (stereo partly drawn) [Example 1BN, N-((S)-3-(3,4-dihydroisoquinolin-2(1H)-yl)-2-hydroxypropyl)-2-phenyl-1,4-thiazepane-4-carboxamide] — 320-fold lower, 104 nM
- O=C(NC[C@H](O)CN1CCc2ccccc2C1)N1CCCS(=O)(=O)C(c2ccccc2)C1 (stereo partly drawn) [Example 1BO, N-((S)-3-(3,4-dihydroisoquinolin-2(1H)-yl)-2-hydroxypropyl)-2-phenyl-1,4-thiazepane-4-carboxamide 1,1-dioxide] — 18-fold lower, 1820 nM
- O=C(NC[C@H](O)CN1CCc2ccccc2C1)N1CCCOCC1 [Example 1BP, (S)-N-(3-(3,4-dihydroisoquinolin-2(1H)-yl)-2-hydroxypropyl)-1,4-oxazepane-4-carboxamide] — 4.5-fold lower, 7330 nM
- O=C(NC[C@H](O)CN1CCc2ccccc2C1)N1CCCC(c2ccccn2)C1 (stereo partly drawn) [Example 1BQ, N-((S)-3-(3,4-dihydroisoquinolin-2(1H)-yl)-2-hydroxypropyl)-3-(pyridin-2-yl)piperidine-1-carboxamide] — 690-fold lower, 48 nM
- Cn1cc(C2CCCN(C(=O)NC[C@H](O)CN3CCc4ccccc4C3)C2)ccc1=O (stereo partly drawn) [Example 1BR, N-((S)-3-(3,4-dihydroisoquinolin-2(1H)-yl)-2-hydroxypropyl)-3-(1-methyl-6-oxo-1,6-dihydropyridin-3-yl)piperidine-1-carboxamide] — 68-fold lower, 490 nM
- O=C(NC[C@H](O)CN1CCc2ccccc2C1)N1CCCC(c2cnccn2)C1 (stereo partly drawn) [Example 1BS, N-((S)-3-(3,4-dihydroisoquinolin-2(1H)-yl)-2-hydroxypropyl)-3-(pyrazin-2-yl)piperidine-1-carboxamide] — 140-fold lower, 237 nM
- Cc1cc(C2CCCN(C(=O)NC[C@H](O)CN3CCc4ccccc4C3)C2)ccn1 (stereo partly drawn) [Example 1BT, N-((S)-3-(3,4-dihydroisoquinolin-2(1H)-yl)-2-hydroxypropyl)-3-(2-methylpyridin-4-yl)piperidine-1-carboxamide] — 260-fold lower, 127 nM
- O=C(NC[C@H](O)CN1CCc2ccccc2C1)N1CCCC(c2ccc(F)cc2)C1 (stereo partly drawn) [Example 1BU, N-((S)-3-(3,4-dihydroisoquinolin-2(1H)-yl)-2-hydroxypropyl)-3-(4-fluorophenyl)piperidine-1-carboxamide] — 2800-fold lower, 12 nM
- O=C(NC[C@H](O)CN1CCc2ccccc2C1)N1CCCC(c2cccnc2)C1 (stereo partly drawn) [Example 1BV, N-((S)-3-(3,4-dihydroisoquinolin-2(1H)-yl)-2-hydroxypropyl)-3-(pyridin-3-yl)piperidine-1-carboxamide] — 580-fold lower, 57 nM
- O=C(NC[C@H](O)CN1CCc2ccccc2C1)N1CCCC(N2CCOCC2)C1 (stereo partly drawn) [Example 1BW, N-((S)-3-(3,4-dihydroisoquinolin-2(1H)-yl)-2-hydroxypropyl)-3-morpholinopiperidine-1-carboxamide] — 12-fold lower, 2860 nM
- O=C(NC[C@H](O)CN1CCc2ccccc2C1)N1CCCC(N2CCSCC2)C1 (stereo partly drawn) [Example 1BX, N-((S)-3-(3,4-dihydroisoquinolin-2(1H)-yl)-2-hydroxypropyl)-3-thiomorpholinopiperidine-1-carboxamide] — 52-fold lower, 634 nM
- CN1CCN(C2CCCN(C(=O)NC[C@H](O)CN3CCc4ccccc4C3)C2)CC1 (stereo partly drawn) [Example 1BY, N-((S)-3-(3,4-dihydroisoquinolin-2(1H)-yl)-2-hydroxypropyl)-3-(4-methylpiperazin-1-yl)piperidine-1-carboxamide] — 12-fold lower, 2650 nM
- O=C(NC[C@H](O)CN1CCc2ccccc2C1)N1CCCC(C2CCOCC2)C1 (stereo partly drawn) [Example 1BZ, N-((S)-3-(3,4-dihydroisoquinolin-2(1H)-yl)-2-hydroxypropyl)-3-(tetrahydro-2H-pyran-4-yl)piperidine-1-carboxamide] — 120-fold lower, 270 nM
- O=C(NCC(O)CN1CCc2ccccc2C1)N1CCN(c2ccccc2)CC1 (stereo not shown) [Example 1C, N-[2-hydroxy-3-(1,2,3,4-tetrahydroisoquinolin-2-yl)propyl]-4-phenylpiperazine-1-carboxamide] — 27-fold lower, 1240 nM
- O=C(NC[C@H](O)CN1CCc2ccccc2C1)N1CCCC(C2CCSCC2)C1 (stereo partly drawn) [Example 1CA, N-((S)-3-(3,4-dihydroisoquinolin-2(1H)-yl)-2-hydroxypropyl)-3-(tetrahydro-2H-thiopyran-4-yl)piperidine-1-carboxamide] — 570-fold lower, 58 nM
